The results in this text go back to US12624034B2, “Non-covalent modifiers of AKT1 and uses thereof” (Terremoto Biosciences, Inc., priority 2023, dated 2026).

Experiment [1] deals with LAPC4 prostate cancer cells, which express the AKT1 E17K allele. The experiment is described as follows: Antiproliferative effects in LAPC4 cells (CellTiter Glo, 72 h). Conditions: read-out: LAPC4 proliferation IC50. The experiment is classed as cell-based. The method in brief:
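LAPC4 cells were cultured in IMDM with 12% FBS and 1% P/S, seeded at 1,000 cells/well and exposed to compound dilutions in DMSO. After 72 h, intracellular ATP was measured by CellTiter Glo luminescence, and IC50 values came from a log(inhibitor) vs. response Hill fit.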

The next experiment addresses T1, AKT2 (Homo sapiens, UniProt P31751).
T1 construct: expressed in transfected cells; host or cells: HEK293
The experiment is described as follows: Live cell AKT2 target engagement by NanoBRET competitive probe displacement in HEK293 cells. The experiment is classed as binding. Conditions: 2 h at 37° C., read-out: AKT2 IC50. (BRET reads energy transfer from a luciferase to a nearby fluorophore.)

The target of another experiment is T2, AKT1 E17K (Homo sapiens, UniProt P31749, E17K).
T2 construct: expressed in transfected cells; host or cells: HEK293
T2 sequence (P31749 whole entry E17K): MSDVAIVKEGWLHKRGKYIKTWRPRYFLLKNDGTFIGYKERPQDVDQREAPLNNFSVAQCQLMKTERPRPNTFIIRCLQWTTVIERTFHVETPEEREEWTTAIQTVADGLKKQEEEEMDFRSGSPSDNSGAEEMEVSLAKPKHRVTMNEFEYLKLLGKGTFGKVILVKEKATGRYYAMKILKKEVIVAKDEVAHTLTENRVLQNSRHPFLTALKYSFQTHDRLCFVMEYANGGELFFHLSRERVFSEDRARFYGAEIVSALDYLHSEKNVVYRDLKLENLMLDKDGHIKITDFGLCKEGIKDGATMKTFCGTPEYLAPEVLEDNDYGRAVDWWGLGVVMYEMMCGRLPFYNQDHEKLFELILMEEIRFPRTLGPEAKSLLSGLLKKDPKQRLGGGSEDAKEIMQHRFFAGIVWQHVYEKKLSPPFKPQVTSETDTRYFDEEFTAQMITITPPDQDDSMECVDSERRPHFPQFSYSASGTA
The experiment can be described thus: Live cell AKT1 E17K target engagement by NanoBRET competitive probe displacement in HEK293 cells. It counts as binding. Conditions: 2 h at 37° C. The method in brief:
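HEK293 cells transiently expressing kinase–NanoLuciferase fusions (overnight transfection) were exposed to serially diluted compound plus a fluorescent ATP-competitive tracer at ~EC50 for 2 h at 37° C. After substrate and extracellular luciferase inhibitor, emission at 460 and 600 nm gave the BRET ratio (E600/E460); IC50 from Hill fit.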

A further experiment concerns the target T3, AKT1 WT (Homo sapiens, UniProt P31749).
T3 construct: expressed in transfected cells; host or cells: HEK293
The experiment is described as follows: Live cell AKT1 WT target engagement by NanoBRET competitive probe displacement in HEK293 cells. The experiment is classed as binding. Conditions: 2 h at 37° C., read-out: AKT1 WT IC50.

Where [2] appears, read: NanoBRET competitive probe displacement, live HEK293 cells.
Setting [3] is: NanoBRET live cell target engagement, HEK293 cells.

Where two headings read alike, the source gives them in different places.

T3 sequence (P31749 whole entry): as the sequence (P31749 whole entry E17K) above, with K17E counted along it
T1 sequence (P31751 whole entry): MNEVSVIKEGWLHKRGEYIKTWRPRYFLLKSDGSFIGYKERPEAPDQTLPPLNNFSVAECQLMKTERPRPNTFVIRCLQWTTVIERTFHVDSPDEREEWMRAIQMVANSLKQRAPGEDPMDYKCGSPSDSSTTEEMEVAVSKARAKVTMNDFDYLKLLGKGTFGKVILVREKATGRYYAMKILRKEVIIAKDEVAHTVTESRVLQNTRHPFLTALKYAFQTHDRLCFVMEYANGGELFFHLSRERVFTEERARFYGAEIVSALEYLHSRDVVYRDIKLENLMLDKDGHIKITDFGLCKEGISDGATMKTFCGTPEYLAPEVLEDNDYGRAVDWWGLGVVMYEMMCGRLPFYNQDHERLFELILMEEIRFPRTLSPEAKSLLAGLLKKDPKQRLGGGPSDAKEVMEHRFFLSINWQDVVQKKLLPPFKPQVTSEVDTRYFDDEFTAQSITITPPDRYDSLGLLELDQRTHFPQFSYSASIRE

As for `Nc1ncccc1-c1nc2ccc(-n3cccn3)nc2n1-c1ccc2c(c1)CC[C@@H]2NC1CCc2cnccc21` (single isomer, unassigned) [Compound 474], the IC50 amounted to 2730 nM in experiment [1] (Homo sapiens, LAPC4, 72 h); 423 nM on AKT2 (setting [2]); 196 nM at AKT1 E17K (setting [2]); 14.9 nM on AKT1 WT (setting [2]).
On to `Nc1ncccc1-c1nc2ccc(-n3cccn3)nc2n1-c1ccc2c(c1)CC[C@@H]2NC(=O)c1ccccc1` [Compound 43, (S)—N-(5-(2-(2-aminopyridin-3-yl)-5-(1H-pyrazol-1-yl)-3H-imidazo[4,5-b]pyridin-3-yl)-2,3-dihydro-1H-inden-1-yl)benzamide], for which the IC50 in experiment [1] (Homo sapiens, LAPC4, 72 h) is 1160 nM; at AKT2 (setting [3]), 139 nM; at AKT1 E17K (setting [3]), 44.2 nM; at AKT1 WT (setting [3]) it was 14.1 nM.
For the compound `Nc1ncccc1-c1nc2ccc(-n3cccn3)nc2n1-c1ccc2c(c1)CC[C@@H]2NC1CCN(c2ccccn2)C1` (some centres unmarked) [Compound 388], the IC50 turned out to be 3140 nM in experiment [1], 674 nM on AKT2 (setting [3]), 247 nM on AKT1 E17K (setting [3]) and 28.7 nM at AKT1 WT (setting [3]).
In the case of `Nc1ncccc1-c1nc2ccc(-n3cccn3)nc2n1-c1ccc2c(c1)CC[C@@H]2NC(=O)c1cncnc1` [Compound 40, N-[(1S)-5-[2-(2-aminopyridin-3-yl)-5-(pyrazol-1-yl)imidazo[4,5-b]pyridin-3-yl]-2,3-dihydro-1H-inden-1-yl]pyrimidine-5-carboxamide], the IC50 in experiment [1] (Homo sapiens, LAPC4, 72 h) was found to be 1770 nM; on AKT2 (setting [3]) it was 179 nM; on AKT1 E17K (setting [3]), 36 nM; on AKT1 WT (setting [3]), 9.21 nM.
As to `Nc1ncccc1-c1nc2ccc(-n3cccn3)nc2n1-c1ccc2c(c1)CC[C@@H]2NC(=O)c1cnc(C(F)F)c(Cl)c1` [Compound 365], the IC50 in experiment [1] (Homo sapiens, LAPC4, 72 h) is 444 nM; on AKT2 (setting [3]) it was 24.9 nM; on AKT1 E17K (setting [3]), 26.5 nM; on AKT1 WT (setting [3]) it was 8.58 nM.
For `COc1ccn(-c2ccc3nc(-c4cccnc4N)n(-c4ccc5c(c4)CC[C@@H]5NC4CCN(C(=O)C5CC5)CC4)c3n2)n1` [Compound 440], the IC50 is 5270 nM in experiment [1] (Homo sapiens, LAPC4, 72 h); 1750 nM on AKT2 (setting [2]); greater than 1000 nM on AKT1 E17K (setting [2]); 24.3 nM at AKT1 WT (setting [2]).
Consider `Nc1ncccc1-c1nc2ccc(-n3nccn3)nc2n1-c1ccc2c(c1)CC[C@@H]2NC1CCN(c2ccccn2)CC1` [Compound 366], for which the IC50 in experiment [1] (Homo sapiens, LAPC4, 72 h) is greater than 10000 nM; on AKT2 (setting [3]), 4380 nM; on AKT1 E17K (setting [3]), 818 nM; at AKT1 WT (setting [3]), 70.9 nM.
In the case of `Nc1ncccc1-c1nc2ccc(-n3nccn3)nc2n1-c1ccc2c(c1)CC[C@@H]2NC(=O)c1ccc(C2CC2)nc1` [Compound 491], the IC50 in experiment [1] (Homo sapiens, LAPC4, 72 h) came out at 285 nM; on AKT2 (setting [2]) it was 351 nM; at AKT1 E17K (setting [2]) it was 23.6 nM; at AKT1 WT (setting [2]) it was 5.37 nM.
With `Nc1ncccc1-c1nc2ccc(-n3ccc(F)n3)nc2n1-c1ccc2c(c1)CC[C@@H]2NC1CCN(c2ccccn2)CC1` [Compound 367], the IC50 in experiment [1] (Homo sapiens, LAPC4, 72 h) turned out to be 6330 nM; on AKT2 (setting [3]), 2520 nM; at AKT1 E17K (setting [3]) it was 735 nM; at AKT1 WT (setting [3]), 74.4 nM.
For `Nc1ncccc1-c1nc2ccc(-n3cccn3)nc2n1-c1ccc2c(c1)CC(F)[C@@H]2NC1CCN(C(=O)C2CC2)CC1` (single isomer, unassigned) [Compound 385, 3-{3-[(1R,2*)-1-[(1-cyclopropanecarbonylpiperidin-4-yl)amino]-2-fluoro-2,3-dihydro-1H-inden-5-yl]-5-(pyrazol-1-yl)imidazo[4,5-b]pyridin-2-yl}pyridin-2-amine], the IC50 is greater than 7500 nM in experiment [1] (Homo sapiens, LAPC4, 72 h); 1790 nM at AKT2 (setting [3]); greater than 856 nM on AKT1 E17K (setting [3]); 34.3 nM on AKT1 WT (setting [3]).
On the same counts, the results for `COc1cc(C(=O)N[C@H]2CCc3cc(-n4c(-c5cccnc5N)nc5ccc(-n6cccn6)nc54)ccc32)cc(C)n1` [Compound 280] are 516 nM, 7.09 nM, 33.7 nM and 2.75 nM.
Consider `Nc1ncccc1-c1nc2ccc(-n3cccn3)nc2n1-c1ccc2c(c1)CC[C@@H]2NC(=O)c1ccc(Cl)nc1` [Compound 45, (S)—N-(5-(2-(2-aminopyridin-3-yl)-5-(1H-pyrazol-1-yl)-3H-imidazo[4,5-b]pyridin-3-yl)-2,3-dihydro-1H-inden-1-yl)-6-chloronicotinamide], for which the IC50 in experiment [1] (Homo sapiens, LAPC4, 72 h) turned out to be 1340 nM; at AKT2 (setting [3]) it was 139 nM; on AKT1 E17K (setting [3]), 170 nM; at AKT1 WT (setting [3]), 17.4 nM.
In the case of `Nc1ncccc1-c1nc2ccc(-n3cccn3)nc2n1-c1ccc2c(c1)CC[C@@H]2NC(=O)c1ccnnc1` [Compound 33, (S)—N-(5-(2-(2-aminopyridin-3-yl)-5-(1H-pyrazol-1-yl)-3H-imidazo[4,5-b]pyridin-3-yl)-2,3-dihydro-1H-inden-1-yl)pyridazine-4-carboxamide], the IC50 was 3750 nM in experiment [1] (Homo sapiens, LAPC4, 72 h); 321 nM at AKT2 (setting [3]); greater than 1000 nM on AKT1 E17K (setting [3]); 19.6 nM at AKT1 WT (setting [3]).
Turning to `N#Cc1ccc(C(=O)N[C@H]2CCc3cc(-n4c(-c5cccnc5N)nc5ccc(-n6cccn6)nc54)ccc32)cc1` [Compound 41, N-[(1S)-5-[2-(2-aminopyridin-3-yl)-5-(pyrazol-1-yl)imidazo[4,5-b]pyridin-3-yl]-2,3-dihydro-1H-inden-1-yl]-4-cyanobenzamide], the IC50 in experiment [1] (Homo sapiens, LAPC4, 72 h) amounted to 1170 nM; on AKT2 (setting [3]) it was 57.4 nM; at AKT1 E17K (setting [3]) it was 30.1 nM; at AKT1 WT (setting [3]), 6.36 nM.
As for `Cn1ccc(N2CCC(N[C@H]3CCc4cc(-n5c(-c6cccnc6N)nc6ccc(-n7cccn7)nc65)ccc43)CC2)n1` [Compound 276], the IC50 in experiment [1] (Homo sapiens, LAPC4, 72 h) was greater than 10000 nM; on AKT2 (setting [3]) it was 1200 nM; at AKT1 E17K (setting [3]) it was greater than 1000 nM; at AKT1 WT (setting [3]), 47.4 nM.
Consider `Nc1ncccc1-c1nc2ccc(-n3nccn3)nc2n1-c1ccc2c(c1)CC(F)[C@@H]2NC(=O)c1ccc(C(F)F)nc1` (some centres unmarked) [Compound 349], for which the IC50 in experiment [1] worked out at 408 nM; on AKT2 (setting [3]) it was 222 nM; at AKT1 E17K (setting [3]), 49.6 nM; on AKT1 WT (setting [3]), 10.3 nM.
For the compound `CCC(=O)N1CCC(N[C@H]2CCc3cc(-n4c(-c5cccnc5N)nc5ccc(-n6cccn6)nc54)ccc32)CC1` [Compound 278], the IC50 in experiment [1] (Homo sapiens, LAPC4, 72 h) was greater than 10000 nM; at AKT2 (setting [3]), 3290 nM; on AKT1 E17K (setting [3]), greater than 1000 nM; on AKT1 WT (setting [3]), 93 nM.
Regarding `Nc1ncccc1-c1nc2ccc(-n3cccn3)nc2n1-c1ccc2c(c1)CC[C@@H]2NC(=O)c1ccc(C2CC2)nc1` [Compound 46, N-[(1S)-5-[2-(2-aminopyridin-3-yl)-5-(pyrazol-1-yl)imidazo[4,5-b]pyridin-3-yl]-2,3-dihydro-1H-inden-1-yl]-6-cyclopropylpyridine-3-carboxamide], the IC50 was 331 nM in experiment [1] (Homo sapiens, LAPC4, 72 h); 17 nM on AKT2 (setting [3]); 15 nM on AKT1 E17K (setting [3]); 6.94 nM on AKT1 WT (setting [3]).
On to `Nc1ncccc1-c1nc2ccc(-n3cccn3)nc2n1-c1ccc2c(c1)CC[C@@H]2NC1CCN(c2ccccn2)C1` (some centres unmarked) [Compound 387], for which the IC50 in experiment [1] (Homo sapiens, LAPC4, 72 h) worked out at 4430 nM; at AKT2 (setting [3]), 351 nM; at AKT1 E17K (setting [3]), 376 nM; at AKT1 WT (setting [3]) it was 9.48 nM.
As for `Nc1ncccc1-c1nc2ccc(-n3cccn3)nc2n1-c1ccc2c(c1)CC[C@@H]2NC(=O)c1ccc2nccn2c1` [Compound 17, (S)—N-(5-(2-(2-aminopyridin-3-yl)-5-(1H-pyrazol-1-yl)-3H-imidazo[4,5-b]pyridin-3-yl)-2,3-dihydro-1H-inden-1-yl)imidazo[1,2-a]pyridine-6-carboxamide], the IC50 in experiment [1] (Homo sapiens, LAPC4, 72 h) worked out at 1020 nM; on AKT2 (setting [3]) it was 90.6 nM; on AKT1 E17K (setting [3]), 41.2 nM; on AKT1 WT (setting [3]), 5.78 nM.
In the same order, the values of `Nc1ncccc1-c1nc2ccc(-n3cccn3)nc2n1-c1ccc2c(c1)CC[C@@H]2NC(=O)c1ccc(O)cc1` [Compound 42, (S)—N-(5-(2-(2-aminopyridin-3-yl)-5-(1H-pyrazol-1-yl)-3H-imidazo[4,5-b]pyridin-3-yl)-2,3-dihydro-1H-inden-1-yl)-4-hydroxybenzamide] are 631 nM, 40.7 nM, 14.4 nM and 2.84 nM.
For the compound `Nc1ncccc1-c1nc2ccc(-n3cccn3)nc2n1-c1ccc2c(c1)CC[C@@H]2NC(=O)C1CC1` [Compound 37, N-[(1S)-5-[2-(2-aminopyridin-3-yl)-5-(pyrazol-1-yl)imidazo[4,5-b]pyridin-3-yl]-2,3-dihydro-1H-inden-1-yl]cyclopropanecarboxamide], the IC50 is greater than 10000 nM in experiment [1] (Homo sapiens, LAPC4, 72 h); 7720 nM on AKT2 (setting [3]); greater than 1000 nM on AKT1 E17K (setting [3]); 175 nM at AKT1 WT (setting [3]).
For `Cc1ccc(C(=O)N[C@H]2CCc3cc(-n4c(-c5ccccc5F)nc5ccc(-n6cccn6)nc54)ccc32)cn1` [Compound 401], the IC50 was 4210 nM in experiment [1] (Homo sapiens, LAPC4, 72 h); 2730 nM at AKT2 (setting [2]); 108 nM on AKT1 E17K (setting [2]); 10.9 nM at AKT1 WT (setting [2]).
